ChEMBL document CHEMBL1156829 (Proc Natl Acad Sci U S A, 2008)
Several values for one entry are separate records, joined by “and”; a condition that tells them apart may be missing. Equal values may be shown once.

What was measured:
Plasmodium falciparum [1] = assay: NOVARTIS: Inhibition of Plasmodium falciparum W2 (drug-resistant) proliferation in erythrocyte-based infection assay; assay type: functional, organism-based; details: read-out: EC50
Plasmodium falciparum [2] = assay: NOVARTIS: Inhibition of Plasmodium falciparum 3D7 (drug-susceptible) proliferation in erythrocyte-based infection assay; assay type: functional, organism-based

SMILES	EC50 (Plasmodium falciparum [1]; Plasmodium falciparum, W2) [nM]	EC50 (Plasmodium falciparum [2]; Plasmodium falciparum, 3D7) [nM]	EC50 (Plasmodium falciparum [1]) [nM]	EC50 (Plasmodium falciparum [2])
CCN1/C(=C\c2sc3ccc(O)cc3[n+]2CC)C=Cc2ccccc21	701	582	–	–
O=[N+]([O-])c1ccc(C2OC3C(c4ccc(Cl)cc4)=Nc4ccccc4N3C2c2ccc([N+](=O)[O-])cc2)cc1 (stereo unspecified)	709	> 1250	–	–
CCOC(=O)C1=C(C)NC(=Cc2cc(C)n(-c3ccccc3C(F)(F)F)c2C)C1=O	11.7	13.8	–	–
Cc1ccc(NC(=O)C2C3C=CC4(O3)C2C(=O)N(CCCN2CCOCC2)C4C(=O)NC2CCCC(C)C2C)cc1Cl (stereo unspecified)	> 117	> 1630	–	–
CCCCOc1ccc(/C=C(/C#N)c2nc(-c3ccc(-c4ccccc4)cc3)cs2)cc1	> 774	> 1250	–	–
CCc1nc(N)nc(N)c1-c1ccccc1	> 1250	1550	–	–
O=C(/C=C/c1ccccc1)Nc1ccc(C(=O)OC[C@@H]2CCCN3CCCC[C@H]23)cc1	> 1250	1440	–	–
O=C1CCC(=O)N1c1ccc(CSc2nc3ccccc3[nH]2)cc1	> 1250	> 281	–	–
CN(C)c1ccc(/C=C2\SC(=N)N(c3nccs3)C2=O)cc1	307	223	–	–
COc1ccc2ccccc2c1C1NC(SCc2ccc(F)cc2)=NC(C)=C1C(C)=O (stereo unspecified)	702	> 1610	–	–
CC1=NN(c2ccccc2)C(=O)C1=NNc1c(Br)cc(Br)cc1Br	> 1050	> 1250	–	–
CCC(C)NC(=O)c1nn(-c2ccc(Cl)cc2)c(=O)c2ccccc12 (stereo unspecified)	696	285	–	–
Oc1ccccc1CNC(Cc1ccccc1)C(O)(c1ccccc1)c1ccccc1 (stereo unspecified)	27.6	203	–	–
COc1cc2c(cc1OC)C1=NNC(=O)C1=NC(C)(C)C2	793	> 1580	–	–
CN1/C(=C\C=C\C2=[N+](C)c3ccc4ccccc4c3C2(C)C)C(C)(C)c2ccccc21	1020	1640	–	–
CCCOc1ccc(C(=O)C2=C(O)C(=O)N(CCN3CCOCC3)C2c2ccc(F)cc2)c(C)c1 (stereo unspecified)	> 896	> 1250	–	–
CCC(=O)Nc1ccc(C(=O)NN=Cc2cc([N+](=O)[O-])ccc2O)cc1	1540	> 1250	–	–
CC(=O)N1CCc2cc(Br)cc(S(=O)(=O)N(CC(C)C)CC(C)C)c21	270	1220	–	–
CCCCN(CCCC)c1nc(=O)cc(-c2ccc(Cl)cc2)o1	636	810	–	–
CC1(C)Cc2nc3ccccc3c(NCc3ccc(Cl)cc3)c2C(O)C1 (stereo unspecified)	2110	> 1250	–	–
CCOC(=O)CC(C)(O)P(=O)(OC)OC (stereo unspecified)	> 1250	> 1010	–	–

SMILES	EC50 (Plasmodium falciparum [1]; Plasmodium falciparum, W2) [nM]	EC50 (Plasmodium falciparum [2]; Plasmodium falciparum, 3D7) [nM]	EC50 (Plasmodium falciparum [1]) [nM]	EC50 (Plasmodium falciparum [2])
COc1ccc(-c2csc(NC(=O)COc3ccccc3Cl)n2)cc1Br	286	1640	–	–
CN(C=Cc1sc2ccc3ccccc3c2[n+]1C)c1ccccc1	–	–	909	553 nM
CC[n+]1ccc(C=Cc2ccc(N(C)C)cc2)cc1	–	681	724	–
COc1cnc(-c2ccccn2)nc1N1CCCC1	648	489	–	–
Cc1ccnc(Nc2nc(-c3ccccn3)cs2)c1	46.3	113	–	–
CC(C)CC[n+]1ccccc1C=Cc1ccc(N(C)C)cc1	–	–	548	747 nM
COc1ccc(C2C(C(=O)c3ccc(C)cc3)=C(O)C(=O)N2CCN2CCOCC2)c(OC)c1 (stereo unspecified)	> 1250	> 50	–	–
O=C1C(N2CCCCC2)=C(N2CCOCC2)C(=O)c2ccccc21	> 1460	1240	–	–
C=CC1CN2CCC1CC2[C@@H](OC(=O)c1cc([N+](=O)[O-])cc([N+](=O)[O-])c1)c1ccnc2ccc(OC)cc12 (stereo partly specified)	1610	1300	–	–
CCN1/C(=C/c2sc3ccc(-c4ccccc4)cc3[n+]2CCO)C=Cc2cc(OC)ccc21	945	487	–	–
CC[n+]1cc(C)ccc1C=Cc1ccc(N(C)C)cc1	386	–	–	521 nM
O=C1/C(=C/c2ccccc2)SC(=Nc2ccccc2)N1C1CCCCC1	> 1250	1200	–	–
Cc1cc2cc3c(cc2c(C)n1)c1ccccc1n3C	1100	1260	–	–
Cc1ccc(Nc2nc(-c3ccccn3)cs2)cc1	368	407	–	–
CC12C(=O)N(c3cccc(C(=O)O)c3)C(=O)C1C1c3ccccc3C2c2ccccc21 (stereo unspecified)	> 1250	> 652	–	–
Cc1ccc(C=Cc2ccc(N(C)C)cc2)[n+](C)c1	–	–	914	1160 nM
CNc1nc(NN=Cc2cc([N+](=O)[O-])ccc2O)nc(Nc2cccc(C(F)(F)F)c2)n1	> 1660	1860	–	–
N#Cc1c2c(c(N3CCN(C(c4ccccc4)c4ccccc4)CC3)n3c1nc1ccccc13)CCC2	2270	> 1250	–	–
Cc1cccc(NC(c2cccc(F)c2)c2ccc3cccnc3c2O)n1 (stereo unspecified)	880	1710	–	–
CCOC(=O)c1c(-c2ccc3c(c2)OCO3)[nH]c2cc(OC)ccc2c1=O	180	127	–	–
CN1/C(=C/C=C/c2oc3ccccc3[n+]2C)Oc2ccccc21	–	161	–	182 nM

SMILES	EC50 (Plasmodium falciparum [1]; Plasmodium falciparum, W2) [nM]	EC50 (Plasmodium falciparum [2]; Plasmodium falciparum, 3D7) [nM]	EC50 (Plasmodium falciparum [1]) [nM]	EC50 (Plasmodium falciparum [2])
CCCOC(=O)c1c(NC(=O)c2c(I)cnn2C)sc2c1CCCCC2	> 1250	1240	–	–
Cc1ccc(N=C(Nc2ccc(C)cc2)Nc2ccccc2O)cc1	231	1530	–	–
Oc1ccc(C(CCNCCc2c[nH]c3ccccc23)c2ccccc2)cc1 (stereo unspecified)	474	> 997	–	–
C=C[C@H]1C[N@]2CC[C@H]1C[C@H]2[C@H](O)c1ccnc2ccc(OC)cc12	793	518	–	–
CN(C)c1ccc(/C=C2\N=C(c3ccccc3F)OC2=O)cc1	> 1210	> 1250	–	–
O=C(Cn1ccc(=NCc2ccccc2)cc1)c1cccc(Br)c1	> 110	> 1390	–	–
O=C(NC(=S)Nc1ccc(-c2nc3ccccc3s2)cc1)c1ccc(S(=O)(=O)N2CCCC2)cc1	> 1590	2050	–	–
COc1ccc(/C=C2\SC(=S)N(CC(=O)NNC(=O)c3ccncc3)C2=O)cc1	2280	> 1520	–	–
COc1ccc(OC)c(C=NNC(=O)Cc2cc(O)n[nH]2)c1	1940	> 1250	–	–
CCN1C=Cc2ccccc2/C1=C\c1ccc2ccccc2[n+]1CC	294	670	–	–
Cc1ccc(NC(=O)c2cc3ccccc3oc2=O)nc1	> 1250	> 1080	–	–
COc1ccc(-c2nc(-c3ccc(-c4[nH]c(-c5ccc(OC)cc5)nc4-c4ccccc4)cc3)c(-c3ccccc3)[nH]2)cc1	> 1250	1290	–	–
CCOC(=O)C1=C(C)N/C(=C/c2cc(C)n(-c3ccccc3C(F)(F)F)c2C)C1=O	628	471	–	–
CCCCOc1cccc(NC(=O)CSC2=C(C#N)C(c3ccccc3)C(C(=O)Nc3ccccc3)=C(C)N2)c1 (stereo unspecified)	479	507	–	–
N#CCSc1nc2c(sc(=S)n2-c2ccccc2)c(=O)n1Cc1ccco1	715	> 1350	–	–
Cc1c(Br)c([N+](=O)[O-])nn1CC(=O)NC(C)c1ccccc1 (stereo unspecified)	> 948	> 1250	–	–
COc1cccc(NC(=O)C2C3C=CC4(O3)C2C(=O)N(CC2COc3ccccc3O2)C4C(=O)NC2CCCCC2)c1 (stereo unspecified)	> 53.7	> 1250	–	–
COc1ccc(-c2cc(C(F)(F)F)n3ncc(C(=O)NCc4ccccc4)c3n2)cc1	1540	> 1250	–	–
CCN(CC)c1ccc(/C=C/c2ccc3ccc(OC)cc3[n+]2CC)cc1	–	–	–	38.4 nM and 248 nM
